From paper PMC9925730, “Controlled sequential in situ self-assembly and disassembly of a fluorogenic cisplatin prodrug for cancer theranostics” (Nature Communications, 2023)
Several values for one entry are separate records, joined by “and”; a condition that tells them apart may be missing. Identical values can stand only once. Like-named read-outs stand apart in the source and are kept apart here.

What was measured:
[1] = Urine and faeces analysis by HPLC (mCy-containing compounds); type: in vivo, mice; set-up: mCy in urine: unit not given beside the values; settings: for percentage excreted to the faeces (HPLC) / percentage excreted to the urine (HPLC): after i.v. P-CyPt
HepG2 cells = test: Cytotoxicity, MTT assay; type: cell-based, human; set-up: key to cell viability, mean: % viability = OD / OD of untreated control
Method: HeLa cells were seeded on flat-bottomed 96-well plates (5000 cells per well) and incubated at 37 °C overnight. Varying concentrations of P-CyPt, Pt^IVNPs or CDDP (0, 1, 2, 5, 10, 20, 30, 50, 100, and 200 μM) in DMEM medium (100 μL) were added. Cells were either incubated for 48 h, or firstly incubated with these three compounds for 2 h, washed with PBS and then incubated with refreshed blank DMEM medium for another 48 h. Then, 3-(4,5)-dimethylthiahiazo (-z-y1)−3,5-di-phenytetrazoliumromide (MTT, 50 μL, 1 mg /mL in PBS) was added into each well. The cells were kept at 37 °C for 4 h, and the solution in each well was carefully removed, followed by addition of dimethyl sulfoxide (DMSO, 150 μL). The absorbance (OD) at 490 nm in each well was acquired on the microplate reader (Tcan). The absorbance of non-treated blank cells (OD control) was used as the control. The percentage of cell viability was calculated by dividing OD to the OD control. […]
Supplementary Table 4. The IC50 (μM) value of different Pt drugs toward HeLa, HepG2 and HEK-293T cells.a
Compounds Condition IC50 (μM) HeLa HepG2 HEK-293T […]
a The IC50 values were measured by the MTT assay. Values denote mean ± s.d. (n = 3 independent experiments). b Cells were incubated with varying concentrations of CDDP, P-CyPt or PtIVNPs for […]
c Cells were incubated with varying concentrations of CDDP, P-CyPt or PtIVNPs for 2 h, and the mediums were removed, washed with PBS. Blank culture mediums were added, and the cells were kept incubation for another 48 h.

[2] = Time period 0-2 h, individual mice, matrix and injected agent not given
[3] = Time period 0-2 h, mean of 3 mice, matrix and injected agent not given
[4] = Time period 2-4 h, individual mice
[5] = Time period 2-4 h, mean of 3 mice
[6] = Time period 4-8 h, individual mice
[7] = Time period 4-8 h, mean of 3 mice
[8] = Time period 8-12 h, mean of 3 mice

In the case of `CC1(C)C(/C=C/C2=C3Oc4cc(OP(=O)(O)O)c(Cl)cc4C=C3CCC2)=[N+](CCCNC(=O)[C@@H](Cc2ccccc2)NC(=O)[C@@H](Cc2ccccc2)NC(=O)CCC(=O)[O][Pt]([NH2])([NH2])([OH])([Cl])[Cl])c2ccccc21` [P-CyPt], the mCy in urine ([1]; Fig.6e, 0-2 h, mean of 3 mice) is reported as 12.76, the mCy in urine ([1]; Fig.6e, 0-2 h, single mice) is reported as 12.5823 and 14.2325 and 11.4685 and the mCy in urine ([1]; Fig.6e, 2-4 h, mean of 3 mice) is reported as 12.43. The mCy in urine ([1]; Fig.6e, 2-4 h, single mice) was 12.5615 and 13.5939 and 11.1324, the mCy in urine ([1]; Fig.6e, 4-8 h, mean of 3 mice) was 12.56 and the mCy in urine ([1]; Fig.6e, 4-8 h, single mice) was 12.5588 and 13.6118 and 11.5060. For the same molecule, the mCy in urine ([1]; Fig.6e, 8-12 h, mean of 3 mice) was 7.02, the mCy in urine ([1]; Fig.6e, 8-12 h, single mice) was 7.0621 and 8.1416 and 5.8422 and the mCy in urine ([1]; Fig.6f, 0-2 h, mean of 3 mice) was 0.53. The mCy in urine ([1]; Fig.6f, 0-2 h, single mice) was 0.4663 and 0.7332 and 0.3884, the mCy in urine ([1]; Fig.6f, 2-4 h, mean of 3 mice) was 6.03 and the mCy in urine ([1]; Fig.6f, 2-4 h, single mice) was 6.1714 and 7.3564 and 4.5750. For the same molecule, the mCy in urine ([1]; Fig.6f, 4-8 h, mean of 3 mice) was 21.29, the mCy in urine ([1]; Fig.6f, 4-8 h, single mice) was 22.9482 and 23.3466 and 17.5729 and the mCy in urine ([1]; Fig.6f, 8-12 h, mean of 3 mice) was 9.19. For the same molecule, the mCy in urine ([1]; Fig.6f, 8-12 h, single mice) was 7.4602 and 10.7840 and 9.3353, the “Compound found in excreta (%), Supplementary Table S5” value [1, 2] was 11.1327% and 12.5928% and 10.1473% and the “Compound found in excreta (%), Supplementary Table S6” value [1, 2] was 0.3965% and 0.6235% and 0.3303%. The “Compound found in excreta (%), Supplementary Table S5” value [1, 3] was 11.29%, the “Compound found in excreta (%), Supplementary Table S6” value [1, 3] was 0.45% and the “Compound found in excreta (%), Supplementary Table S5” value [1, 4] was 5.17% and 5.5947% and 4.582%. The “Compound found in excreta (%), Supplementary Table S6” value [1, 4] was 4.641% and 5.532% and 3.44%, the “Compound found in excreta (%), Supplementary Table S5” value [1, 5] was 5.12% and the “Compound found in excreta (%), Supplementary Table S6” value [1, 5] was 4.54%. The “Compound found in excreta (%), Supplementary Table S5” value [1, 6] was 4.333% and 4.696% and 3.97%, the “Compound found in excreta (%), Supplementary Table S6” value [1, 6] was 0.5705% and 0.5804% and 0.4369% and the “Compound found in excreta (%), Supplementary Table S5” value [1, 7] was 4.33%. For the same molecule, the “Compound found in excreta (%), Supplementary Table S6” value [1, 7] was 0.53%, the “Compound found in excreta (%), Supplementary Table S5” value [1, 8] was 1.41% and the “Compound found in excreta (%), Supplementary Table S6” value [1, 8] was 0.06%. The “percentage excreted to the faeces (HPLC)” value ([1]; 2-4 h) was 4.54± 1.05% and ~ 4.5%, the “percentage excreted to the urine (HPLC)” value ([1]; 2-4 h) was 5.12 ± 0.51% and the “percentage excreted to the faeces (HPLC)” value ([1]; 4-8 h) was 0.53 ± 0.080%. For the same molecule, the “percentage excreted to the urine (HPLC)” value ([1]; 4-8 h) was 4.33 ± 0.055%, the “percentage excreted to the faeces (HPLC)” value ([1]; 8-12 h) was 0.059 ± 0.011% and the “percentage excreted to the urine (HPLC)” value ([1]; 8-12 h) was 1.41 ± 0.23%. The “mCy-containing compounds excreted via hepatobiliary system” value ([1]; over 12 h, of injected dose) was ~ 37.0%, the “mCy-containing compounds excreted via renal system” value ([1]; over 12 h, of injected dose) was ~ 44.8% and the IC50 (HepG2 cells; HepG-2, 2+48 h, individual samples, read-out: IC50-2+48h) was 20.2 µM and 17.1 µM (2×). The IC50 (HepG2 cells; HepG-2, 2+48 h, mean of 3 samples, read-out: IC50-2+48h) was 18.1 µM, the IC50 (HepG2 cells; HepG-2, 48 h, individual samples, read-out: IC50-48h) was 9.3 µM and 10.5 µM and 11 µM and the “cell viability, mean” value (HepG2 cells; Supplementary Fig. 23 (b), concentration 1 μM) was 92.0846. For the same molecule, the “cell viability, mean” value (HepG2 cells; Supplementary Fig. 23 (b), concentration 2 μM) was 82.2394, the “cell viability, mean” value (HepG2 cells; Supplementary Fig. 23 (b), concentration 5 μM) was 69.0701 and the “cell viability, mean” value (HepG2 cells; Supplementary Fig. 23 (b), concentration 10 μM) was 51.1783. For the same molecule, the “cell viability, mean” value (HepG2 cells; Supplementary Fig. 23 (b), concentration 20 μM) was 33.5308, the “cell viability, mean” value (HepG2 cells; Supplementary Fig. 23 (b), concentration 30 μM) was 23.4253 and the “cell viability, mean” value (HepG2 cells; Supplementary Fig. 23 (b), concentration 50 μM) was 15.7997. The “cell viability, mean” value (HepG2 cells; Supplementary Fig. 23 (b), concentration 100 μM) was 10.0234, the “cell viability, mean” value (HepG2 cells; Supplementary Fig. 23 (b), concentration 200 μM) was 7.08 and the IC50 (HepG2 cells; Supplementary Fig. 23 (b), read-out: IC50) was 10.3 µM. For the same molecule, the “cell viability, mean” value (HepG2 cells; Supplementary Fig. 24 (b), concentration 1 μM) was 95.0066, the “cell viability, mean” value (HepG2 cells; Supplementary Fig. 24 (b), concentration 2 μM) was 86.4416 and the “cell viability, mean” value (HepG2 cells; Supplementary Fig. 24 (b), concentration 5 μM) was 75.7976. For the same molecule, the “cell viability, mean” value (HepG2 cells; Supplementary Fig. 24 (b), concentration 10 μM) was 64.0113 and the “cell viability, mean” value (HepG2 cells; Supplementary Fig. 24 (b), concentration 20 μM) was 47.6001.
